Reference: patent US20090311246A1, “Method of Enhancing Remyelination in Demyelinating Diseases of the Central Nervous System” (priority 2008, published 2009)
Entries after “also recorded” stand apart in the source; their conditions may differ.

How the values were obtained:
[1] = system: sera from SFV-infected B6 mice; assay type: binding
Method: To measure the antibody response of both WT and γδ KO mice against SFV and two of the peptides of the SFV envelope protein, E2, an indirect ELISA was performed. Sera were pooled from 4-6 SFV-infected WT, and 3 KO, mice on days 0, 7, 14, 21 and 35 pi. Briefly, Immunolon 2HB 96 well microtiter plates (VWR, Bridge Port, N.J.) were coated with 1 μg/well of each antigen in 100 μl/well carbonate buffer overnight at room temperature. After washing, the plates were blocked and serum samples were added. […] After washing, biotinylated goat anti-mouse Igs (BD Pharmingen, Torreyana, Calif.), Strepavidin conjugated to Horse Radish Peroxidase (Vector Laboratories, Burlingame, Calif.), and OPD substrate (Sigma, St. Louis, Mo.) were used, as previously described (4, 9). […] Values were considered to be positive when they were >0.3 OD units and exceeded the mean value plus three standard deviations for antibody response on day 0 pi of mice of the same strain. […]
In some instances day 0 OD values were high, thus making the differences appear small. Therefore, to account for such discrepancy, we also determined the ratio of the highest day (day 15 or 21) over day 0.

B6 mice with EAE = test: Clinical scores of E2 137-151 peptide-treated mice with MOG 35-55 induced EAE; assay type: in vivo; settings: for Disease severity, treatment from D12 post-EAE induction, compared with untreated EAE mice: 0.5 mg/injection sc in IFA on D12, 17, 22, peak D19
Method: FIG. 6 Comparison of Average Clinical Scores (±SEM) of E2 137-151 peptide-treated, and untreated B6 mice with EAE, on different days post treatment. Data shown is the average of three experiments, total numbers of mice were 21 EAE and 22 treated EAE mice. All mice were immunized subcutaneously with myelin oligodendrocyte glycoprotein (MOG) peptide 35-55 in CFA, on D0. Treated EAE mice received subcutaneous injection of E2-137 peptide (0.5 mg/injection or 25 mg/kg, based on the average weight of 20 g/mouse) in IFA, on day 12 post EAE induction. Additional inoculations of E2-137 peptide/IFA were performed twice more with 5-day intervals. Following the injection, animals were observed daily for clinical manifestations of disease and were scored on a scale of 0-VI, as above. Clinical scores of sacrificed and dead animals have been considered in average calculation till the end of the experiments on day 39.
Method—To induce EAE, fourteen 7-8 wk old B6 mice (Jackson Laboratories, Bar Harbor, Mass.) were each inoculated, subcutaneously, with […] MOG 35-55 in Complete Freund's Adjuvant (CFA) or CFA only (as control), followed by two injections of 100 ng of pertusis toxin, 48 hours apart (9, 73). Eight mice in EAE-induced group were immunized subcutaneously with E2-137-151 (0.5 mg/injection or 25 mg/kg, based on the average weight of 20 g/mouse) in IFA, one day after MOG inoculation. One additional inoculation of E2 137-151/IFA was performed 5 days later. Animals were observed daily for clinical manifestations of disease and were scored on a scale of 0-VI. 0=no abnormality; I=mild hind limb weakness (some difficulty righting themselves when turned on their back); II=moderate hind limb weakness, sometimes associated with floppy tail; III=weakness of hind limbs accompanied by some forelimb weakness, sometimes more marked on one limb or one side, but not complete paralysis; IV=hind limb paresis accompanied by mild forelimb weakness; V=paralysis of hind limbs, associated with moderate forelimb weakness; and VI-quadriplegia, moribund.
Result—Mice were immunized with MOG 35-55 in CFA, to induce EAE as described above. In the first two experiments, mice were divided into two groups, untreated, and treated after EAE induction. The treated EAE group received E2-137-151 peptide in IFA, subcutaneously on D5 post-EAE induction, before the signs of clinical disease were apparent.
Next, three experiments were performed with a total number of 21 RAE and 22 late treated EAE mice. […] EAE mice were further treated with E2-137-151 peptide on days 17 and 22 post-EAE induction. […] Peak of the disease in both RAE and D12 treated EAR mice were on D19 pi.

[2] = system: Rabbit Anti-SFV polyclonal antibody; test: Indirect ELISA of rabbit anti-SFV polyclonal IgG against viral and myelin antigens; assay type: binding
Method: The total IgG fraction was commercially prepared (Strategic Biosolutions, Ramona, Calif.) from pooled sera of 3 rabbits immunized once with UV-inactivated SFV (A774 strain) emulsified in CFA and boosted 3 times with antigen in IFA at weeks 3, 5, and 7. The IgG fraction of the pooled antisera was purified by ion-exchange chromatography and contained 8.7 mg IgG/ml of PBS. Antibody activities to SFV and peptides of SFV, to E2, and to recombinant ® MOG and its peptides were confirmed by ELISA. Normal rabbit IgG, isolated from pooled normal rabbit sera by ion-exchange chromatography (Signa Chemical Co., St. Louis, Mo.), was dissolved in saline. Protein concentration was determined by the Bradford assay (Sigma), using normal rabbit IgG as the standard. The IgG solutions were diluted to 3 mg protein/ml in saline and sterilized by passage through a 0.22 μm filter (Millipore Corp., Bedford, Mass.).
To measure the antibody response of both WT and γδ KO mice against SFV and two of the peptides of the SFV envelope protein, E2, an indirect ELISA was performed. Sera were pooled from 4-6 SFV-infected WT, and 3 KO, mice on days 0, 7, 14, 21 and 35 pi. Briefly, Immunolon 2HB 96 well microtiter plates (VWR, Bridge Port, N.J.) were coated with 1 μg/well of each antigen in 100 μl/well carbonate buffer overnight at room temperature. After washing, the plates were blocked and serum samples were added. […] After washing, biotinylated goat anti-mouse Igs (BD Pharmingen, Torreyana, Calif.), Strepavidin conjugated to Horse Radish Peroxidase (Vector Laboratories, Burlingame, Calif.), and OPD substrate (Sigma, St. Louis, Mo.) were used, as previously described (4, 9). […] Values were considered to be positive when they were >0.3 OD units and exceeded the mean value plus three standard deviations for antibody response on day 0 pi of mice of the same strain.
The polyclonal rabbit anti SFV antibody was commercially prepared (Strategic Biosolutions, Ramona, Calif.) from pooled sera of 3 rabbits, immunized once with UV-inactivated SFV (A774 strain) emulsified in CFA and boosted 3 times with antigen in IFA at weeks 3, 5, and 7.

SMILES: CC[C@H](C)[C@H](NC(=O)[C@H](CCC(=O)O)NC(=O)[C@H](CCCCN)NC(=O)CNC(=O)[C@H](Cc1ccc(O)cc1)NC(=O)[C@H](Cc1c[nH]cn1)NC(=O)[C@@H]1CCCN1C(=O)[C@H](CCCNC(=N)N)NC(=O)[C@@H](NC(=O)[C@@H](NC(=O)[C@H](Cc1ccccc1)NC(=O)[C@H](CCCCN)NC(=O)[C@H](CCC(=O)O)NC(=O)[C@H](CCCNC(=N)N)NC(=O)CN)[C@@H](C)O)[C@@H](C)CC)C(=O)O [E2 137-151]
- Dh / D0 (Ratio) ([1]; OD of highest day (day 15 or 21) over day 0, SFV-infected sera): 3.96
- Dh−D0 (difference) ([1]; OD of highest day minus day 0, SFV-infected sera): 0.406
- Net change in the levels of antibody (ΔOD), D7-9 ([1]; SFV-infected mice sera, days 7-9 pi, day 0 OD subtracted): 0.84 ± 0.39 ΔOD
- Net change in the levels of antibody (ΔOD), D14-16 ([1]; SFV-infected mice sera, days 14-16 pi, day 0 OD subtracted): 1.83 ± 0.47 ΔOD
- Net change in the levels of antibody (ΔOD), D21-23 ([1]; SFV-infected mice sera, days 21-23 pi, day 0 OD subtracted): 2.19 ± 0.76 ΔOD
- Net change in the levels of antibody (ΔOD), D31-35 ([1]; SFV-infected mice sera, days 31-35 pi, day 0 OD subtracted): 2.08 ± 0.67 ΔOD
- Reactivity of sera from SFV-infected B6 mice with the antigen in ELISA ([1]; vs day 0): reacted
- Disease severity, treatment from D12 post-EAE induction, compared with untreated EAE mice (B6 mice with EAE): significantly less severe disease on peak day
- Disease severity, treatment from D12 post-EAE induction, compared with untreated EAE mice (B6 mice with EAE; listed as E2 137-151 peptide): significantly suppressed the clinical disease; also recorded: improved clinical EAE
- Disease severity, treatment from D12 post-EAE induction, compared with untreated EAE mice (B6 mice with EAE; listed as E2-137 peptide): Average disease severity in EAE mice was significantly higher than treated EAE mice
- Clinical disease score at the peak of the disease on D19 (B6 mice with EAE; 19 treated EAE mice (of 22), scale 0-VI): < 1.5
- Clinical signs of EAE, treatment on D5 post-EAE induction (B6 mice with EAE; E2-137-151 peptide in IFA sc before clinical signs): absence of clinical signs of EAE
- Rabbit Anti-SFV Ab, OD at 490 nm ([2]; 10^−2 diluted, indirect ELISA): 1.107 OD
- Immunoreactivity of IgG fraction of serum from rabbits immunized with UV-inactivated SFV ([2]; ELISA): strong immunoreactivity
- OD Difference ([2]; Rabbit Anti-SFV Ab minus Normal Rabbit Serum): 0.934 OD
